According to patent US12195427B2, “MASP-2 inhibitors and methods of use” (priority 2018, dated 2025):
Structures can show the parent of a compound that is named as a salt.

Molecular target: MASP-2 CCP2-SP (Homo sapiens (Human), UniProt O00187)
Assay: MASP-2 co-crystallization, X-ray crystallography and structure analysis (H-bonds, van der Waals contacts);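 for Ligand-pharmacophore element distance, pharmacophore element C2: distance from averaged pharmacophore element to bound ligand; missing value means element absent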;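 for Ligand-pharmacophore element distance, pharmacophore element C3: distance from averaged pharmacophore element to bound ligand; missing value means element absent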;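 for Ligand-pharmacophore element distance, pharmacophore element C4: distance from averaged pharmacophore element to bound ligand; missing value means element absent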;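 for Ligand-pharmacophore element distance, pharmacophore element C5: distance from averaged pharmacophore element to bound ligand; missing value means element absent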
Parameters: van der Waals contact distance, MASP-2 HIS 483 atom CD2 / van der Waals contact distance, MASP-2 HIS 483 atom NE2 / van der Waals contact distance, SER 654 C to compound atom / van der Waals contact distance, SER 654 O to compound atom / van der Waals contact distance, TRP 655 C to compound atom / van der Waals contact distance, MASP-2 GLY 528 atom CA / van der Waals contact distance TRP 655 atom CZ3 / van der Waals contact distance TRP 655 atom N / van der Waals contact distance TRP 655 atom CE3 / van der Waals contact distance GLY 656 atom C / van der Waals contact distance GLY 656 atom CA / van der Waals contact distance GLY 656 atom O / van der Waals contact distance, MASP-2 TYR 607 atom CD1 / van der Waals contact distance, MASP-2 PRO 606 atom O / d(C3,CA1) / d(CA1,N1)2 / d(H4,O1) / d(H4,O2) / d(O1,O2) / d(CA1,O2) / d(CA6,O1) / d(CA6,O2) / d(CA1,C5) / d(O2,H3) / d(N2,C2) / d(CA5,N2) / d(N2,C4) / d(N2,C6) / d(N2,CA3) / d(N2,O3) / d(O4,H2): unit not given beside the values
Details: for Ligand-pharmacophore element distance, pharmacophore element C2 / Ligand-pharmacophore element distance, pharmacophore element C3 / Ligand-pharmacophore element distance, pharmacophore element C4 / Ligand-pharmacophore element distance, pharmacophore element C5 / Ligand-pharmacophore element distance, pharmacophore element C6 / Ligand-pharmacophore element distance, pharmacophore element C7 / Ligand-pharmacophore element distance, pharmacophore element CA1 / Ligand-pharmacophore element distance, pharmacophore element CA2 / Ligand-pharmacophore element distance, pharmacophore element CA3 / Ligand-pharmacophore element distance, pharmacophore element CA4 / Ligand-pharmacophore element distance, pharmacophore element CA5 / Ligand-pharmacophore element distance, pharmacophore element CA6: Table A4-1; for a(N1, CA1, O1) b): Methyl-amino-pyridine compounds; for a(O1, O2, H3) / a(O1, O2, N2) / a(O2, N2, C2) / a(O2, N2, CA2): Table A6-2 pharmacophore angle
Outline: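 First, CCP2-SP constructs with or without a 6His tag are produced in E. coli. Crystals are then soaked once or twice with inhibitor, cryoprotected in 20% glycerol or frozen directly, and diffracted at synchrotron beamlines. Phasing uses molecular replacement with parts of 1Q3X.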

[1] = Table A5-1 pharmacophore: distance between elements, S2/S1 region
[2] = Table A5-2 pharmacophore distance, S3/S4 region
[3] = Table A7-1, between pharmacophore elements of the bound compound
[4] = Table A7-2, between pharmacophore elements of the bound compound

Chain of MASP-2 CCP2-SP (O00187 445-686): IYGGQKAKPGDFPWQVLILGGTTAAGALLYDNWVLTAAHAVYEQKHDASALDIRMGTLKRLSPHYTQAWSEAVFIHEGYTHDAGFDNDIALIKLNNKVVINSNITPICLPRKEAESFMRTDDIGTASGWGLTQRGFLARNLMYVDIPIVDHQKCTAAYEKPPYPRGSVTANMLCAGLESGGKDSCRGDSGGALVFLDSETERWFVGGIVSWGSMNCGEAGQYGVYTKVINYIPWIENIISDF
Chain of MASP-2 CCP2-SP (O00187 364-432 partner): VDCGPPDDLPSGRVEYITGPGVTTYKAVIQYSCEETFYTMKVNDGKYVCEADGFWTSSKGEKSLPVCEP

Cc1nc(N)ccc1CNC(=O)[C@H](C)NC(=O)[C@H]1C[C@@H](c2cccc3ccccc23)CCN1.Cl.Cl [1297_5]
Ligand-pharmacophore element distance, pharmacophore element C2: 0.24 | Ligand-pharmacophore element distance, pharmacophore element C3: 0.29 | Ligand-pharmacophore element distance, pharmacophore element C4: 0 | Ligand-pharmacophore element distance, pharmacophore element C5: 0 | Ligand-pharmacophore element distance, pharmacophore element C6: 0 | Ligand-pharmacophore element distance, pharmacophore element C7: 0 | Ligand-pharmacophore element distance, pharmacophore element CA1: 0.44 | Ligand-pharmacophore element distance, pharmacophore element CA2: 0.07 | Ligand-pharmacophore element distance, pharmacophore element CA3: 0 | Ligand-pharmacophore element distance, pharmacophore element CA4: 1.22 | Ligand-pharmacophore element distance, pharmacophore element CA5: 0 | Ligand-pharmacophore element distance, pharmacophore element CA6: 0 | d(C3,CA1) [1]: 2.86 | d(CA1,N1)2 [1]: 1.38 | d(CA1,O1) [1]: 4.59 | d(CA1,O2) [1]: 3.88 | d(H4,O1) [1]: 4.56 | d(H4,O2) [1]: 3.82 | d(O1,O2) [1]: 3.43 | d(N2,C2) [2]: 1.43 | d(N2,CA2) [2]: 5.69 | d(O2,H3) [2]: 4.06 | d(O2,N2) [2]: 2.67 | a(C3, CA1, O1) (Table A6-1 pharmacophore angle): 150.41 | a(CA1, O1, O2) (Table A6-1 pharmacophore angle): 102.43 | a(O1, O2, H4) (Table A6-1 pharmacophore angle): 132.64 | a(N1, CA1, O1) b) (Table A6-1 pharmacophore angle): 174.11 | a(O1, O2, H3): 146.79 | a(O1, O2, N2): 147.10 | a(O2, N2, C2): 132.77 | a(O2, N2, CA2): 157.05 | Pharmacophore torsion angle a(C3, CA1, O1, H4) [3]: 30.12 | Pharmacophore torsion angle a(H4, O1, O2, H3) [3]: 47.86 | Pharmacophore torsion angle a(H4, O1, O2, N2) [3]: 144.38 | Pharmacophore torsion angle a(N1, CA1, O1, H4) [3]: 10.41 | Pharmacophore torsion angle a(O1, H4, O2, CA1) [3]: −86.41 | Pharmacophore torsion angle a(O1, O2, N2, C2) [3]: 111.81 | Pharmacophore torsion angle a(O1, O2, N2, CA2) [4]: 122.50 | Pharmacophore torsion angle a(O1, O2, N2, CA4) [4]: 101.00

CC(=O)Nc1ccc(CCN[C@H](CCc2ccccc2)C(=O)N[C@@H](C)C(=O)NCc2ccc(N)nc2C)cc1 [compound 1368, (R)-2-((4-Acetamidophenethyl)amino)-N—((S)-1-(((6-amino-2-methylpyridin-3-yl)methyl)amino)-1-oxopropan-2-yl)-4-phenylbutanamide Dihydrochloride]
H-bond distance to MASP-2 ASP 627 atom OD2 (Table A1 (H-Bonds), ASP 627 OD2): 3.24 | H-bond distance to MASP-2 GLY 656 atom N (Table A1 (H-Bonds), GLY 656 N): 3.07 | H-bond distance to MASP-2 PRO 606 atom O (Table A1 (H-Bonds), PRO 606 O): 3.21 | H-bond distance to MASP-2 SER 628 atom O (Table A1 (H-Bonds), SER 628 O): 3.16 | H-bond distance to MASP-2 SER 654 atom O (Table A1 (H-Bonds), SER 654 O): 3.04 | H-bond distance to MASP-2 SER 657 atom O (Table A1 (H-Bonds), SER 657 O): 2.94 | van der Waals contact distance, MASP-2 HIS 483 atom CD2 (Table A2-1): 3.86 | van der Waals contact distance, MASP-2 HIS 483 atom NE2 (Table A2-1): 3.67 | van der Waals contact distance, MASP-2 PHE 529 atom CE2 (Table A2-3): 3.79 | van der Waals contact distance, MASP-2 PHE 529 atom CZ (Table A2-3): 3.71 | van der Waals contact distance, MASP-2 PRO 606 atom CB (Table A2-4): 3.6 | van der Waals contact distance, MASP-2 PRO 606 atom O (Table A2-4): 3.75 | van der Waals contact distance, MASP-2 amino acid atom to compound atom (Table A2-7: SER 628 (CB, O, OG)): 3.63 | van der Waals contact distance, VAL 653 CG1 to compound atom (Table A2-11): 3.32 | van der Waals contact distance, SER 654 O to compound atom (Table A2-12): 3.85 | van der Waals contact distance, TRP 655 CA to compound atom (Table A2-12): 3.29 | van der Waals contact distance TRP 655 atom CE3 (Table A2-13, MASP-2 TRP 655 CE3, compound atom in line below): 3.52 | van der Waals contact distance TRP 655 atom CZ3 (Table A2-13, MASP-2 TRP 655 CZ3): 3.87 | Ligand-pharmacophore element distance, pharmacophore element C2: 0 | Ligand-pharmacophore element distance, pharmacophore element C3: 0.16 | Ligand-pharmacophore element distance, pharmacophore element C4: 0 | Ligand-pharmacophore element distance, pharmacophore element C5: 0 | Ligand-pharmacophore element distance, pharmacophore element C6: 0 | Ligand-pharmacophore element distance, pharmacophore element C7: 0 | Ligand-pharmacophore element distance, pharmacophore element CA1: 0.62 | Ligand-pharmacophore element distance, pharmacophore element CA2: 0.95 | Ligand-pharmacophore element distance, pharmacophore element CA3: 0 | Ligand-pharmacophore element distance, pharmacophore element CA4: 0 | Ligand-pharmacophore element distance, pharmacophore element CA5: 2.23 | Ligand-pharmacophore element distance, pharmacophore element CA6: 0 | d(C3,CA1) [1]: 2.86 | d(CA1,N1)2 [1]: 1.39 | d(CA1,O1) [1]: 4.30 | d(CA1,O2) [1]: 8.92 | d(H4,O1) [1]: 4.34 | d(H4,O2) [1]: 8.84 | d(O1,O2) [1]: 7.07 | d(CA5,N2) [2]: 4.47 | d(N2,CA2) [2]: 6.36 | d(O2,H3) [2]: 7.79 | d(O2,N2) [2]: 4.30 | a(C3, CA1, O1) (Table A6-1 pharmacophore angle): 149.59 | a(CA1, O1, O2) (Table A6-1 pharmacophore angle): 151.69 | a(O1, O2, H4) (Table A6-1 pharmacophore angle): 127.75 | a(N1, CA1, O1) b) (Table A6-1 pharmacophore angle): 173.57 | a(O1, O2, H3): 119.72 | a(O1, O2, N2): 74.03 | a(O2, N2, CA2): 145.05 | Pharmacophore torsion angle a(C3, CA1, O1, H4) [3]: 22.95 | Pharmacophore torsion angle a(H4, O1, O2, H3) [3]: 40.86 | Pharmacophore torsion angle a(H4, O1, O2, N2) [3]: 68.19 | Pharmacophore torsion angle a(N1, CA1, O1, H4) [3]: −2.26 | Pharmacophore torsion angle a(O1, H4, O2, CA1) [3]: −74.89 | Pharmacophore torsion angle a(O1, O2, N2, CA2) [4]: −100.57 | Pharmacophore torsion angle a(O1, O2, N2, CA5) [4]: 124.36

C[C@H](NC(=O)[C@H]1C[C@@H](c2ccccc2)CCN1)C(=O)NCc1cc(Cl)ccc1O.Cl [1078_5]
Ligand-pharmacophore element distance, pharmacophore element C2: 0.71 | Ligand-pharmacophore element distance, pharmacophore element C3: 0 | Ligand-pharmacophore element distance, pharmacophore element C4: 0 | Ligand-pharmacophore element distance, pharmacophore element C5: 0.42 | Ligand-pharmacophore element distance, pharmacophore element C6: 0 | Ligand-pharmacophore element distance, pharmacophore element C7: 0 | Ligand-pharmacophore element distance, pharmacophore element CA1: 1.76 | Ligand-pharmacophore element distance, pharmacophore element CA2: 0.6 | Ligand-pharmacophore element distance, pharmacophore element CA3: 0 | Ligand-pharmacophore element distance, pharmacophore element CA4: 0 | Ligand-pharmacophore element distance, pharmacophore element CA5: 0 | Ligand-pharmacophore element distance, pharmacophore element CA6: 0 | d(CA1,C5) [1]: 3.12 | d(CA1,O1) [1]: 4.48 | d(CA1,O2) [1]: 4.88 | d(CA1,O4) [1]: 2.72 | d(H4,O1) [1]: 2.40 | d(H4,O2) [1]: 2.46 | d(O1,O2) [1]: 3.41 | d(O4,H2) [1]: 0.98 | d(N2,C2) [2]: 1.45 | d(N2,CA2) [2]: 5.65 | d(O2,H3) [2]: 3.24 | d(O2,N2) [2]: 2.95 | a(C5, CA1, O1) (Table A6-1 pharmacophore angle): 164.79 | a(CA1, O1, O2) (Table A6-1 pharmacophore angle): 117.54 | a(CA1, O4, H2) (Table A6-1 pharmacophore angle): 131.80 | a(O1, CA1, O4) (Table A6-1 pharmacophore angle): 55.67 | a(O1, O2, H4) (Table A6-1 pharmacophore angle): 90.82 | a(O1, O2, H3): 138.56 | a(O1, O2, N2): 141.15 | a(O2, N2, C2): 114.27 | a(O2, N2, CA2): 151.79 | Pharmacophore torsion angle a(C5, CA1, O1, H4) [3]: 21.83 | Pharmacophore torsion angle a(H4, O1, O2, H3) [3]: −119.72 | Pharmacophore torsion angle a(H4, O1, O2, N2) [3]: −115.76 | Pharmacophore torsion angle a(O1, H4, O2, CA1) [3]: −52.04 | Pharmacophore torsion angle a(O1, O2, N2, C2) [3]: 148.01 | Pharmacophore torsion angle a(O1, O2, N2, CA2) [4]: 149.21
